The record followed here is patent publication US11987588B2, “Modulators of the beta-3 adrenergic receptor useful for the treatment or prevention of heart failure and disorders related thereto” (Arena Pharmaceuticals, Inc., priority 2017, dated 2024).

This assay concerns the target Beta-3 Adrenergic Receptor (Homo sapiens (Human), UniProt P13945). Briefly: Homogeneous Time-Resolved Fluorescence (HTRF) cAMP antagonist assay, IC50 determination. It is filed as cell-based. The settings on record: CHO-K1 cells stably expressing recombinant receptor, isoproterenol at EC90. In outline: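 CHO-K1 cells stably expressing receptor, 1500 cells/well, preincubated briefly with 10-point 5-fold compound series (top final typically 10 or 100 μM) in PBS with 1 mM IBMX, then challenged with isoproterenol at EC90 for 1 h at room temperature. cAMP read by HTRF against on-plate standard curve; IC50 from dose-response.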
For orientation: In TR-FRET formats the signal depends on donor and acceptor labels being close together.

Sequence of Beta-3 Adrenergic Receptor (P13945 whole entry, species assumed): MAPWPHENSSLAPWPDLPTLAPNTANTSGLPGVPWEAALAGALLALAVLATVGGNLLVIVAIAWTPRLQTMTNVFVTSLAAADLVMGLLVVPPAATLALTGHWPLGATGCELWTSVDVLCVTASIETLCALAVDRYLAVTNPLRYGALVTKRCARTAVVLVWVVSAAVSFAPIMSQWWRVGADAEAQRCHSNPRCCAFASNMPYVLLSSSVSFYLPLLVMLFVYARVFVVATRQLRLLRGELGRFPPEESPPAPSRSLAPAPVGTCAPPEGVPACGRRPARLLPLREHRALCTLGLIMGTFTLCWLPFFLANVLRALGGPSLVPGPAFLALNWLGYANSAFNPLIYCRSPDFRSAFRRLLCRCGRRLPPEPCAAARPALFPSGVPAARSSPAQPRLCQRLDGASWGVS

Usually IC50 stands for the midpoint of a concentration-inhibition curve. As for `CNS(=O)(=O)c1cccc(OC[C@@H](O)CNC2COC3(CCN(S(=O)(=O)c4ccc(Br)cc4)CC3)C2)c1` (stereo partly drawn) [Compound 52, 3-((2S)-3-(8-(4-bromophenylsulfonyl)-1-oxa-8-azaspiro[4.5]decan-3-ylamino)-2-hydroxypropoxy)-N-methylbenzenesulfonamide], the IC50 is 14.1 nM.
In the case of `CN(C)S(=O)(=O)c1cccc(OC[C@@H](O)CNC2COC3(CCN(S(=O)(=O)c4cccc(-c5ccc(CN)cc5)c4)CC3)C2)c1` (stereo partly drawn) [Compound 273, 3-((2S)-3-(8-(4′-(aminomethyl)biphenyl-3-ylsulfonyl)-1-oxa-8-azaspiro[4.5]decan-3-ylamino)-2-hydroxypropoxy)-N,N-dimethylbenzenesulfonamide], the IC50 came out at 15.5 nM.
Consider `CCCn1cc(S(=O)(=O)N2CCC3(CC2)C[C@@H](NC[C@H](O)COc2cccc(S(=O)(=O)NC)c2)CO3)c(=O)c2ccccc21` [Compound 524, 3-((S)-2-hydroxy-3-((R)-8-(4-oxo-1-propyl-1,4-dihydroquinolin-3-ylsulfonyl)-1-oxa-8-azaspiro[4.5]decan-3-ylamino)propoxy)-N-methylbenzenesulfonamide], for which the IC50 was 87.2 nM.
For the molecule `CNS(=O)(=O)c1cccc(OC[C@@H](O)CN[C@H]2COC3(CCN(S(=O)(=O)c4cc5c(nc4N(C)C)OCCN5C)CC3)C2)c1` [Compound 453, 3-((S)-3-((R)-8-(6-(dimethylamino)-1-methyl-2,3-dihydro-1H-pyrido[2,3-b][1,4]oxazin-7-ylsulfonyl)-1-oxa-8-azaspiro[4.5]decan-3-ylamino)-2-hydroxypropoxy)-N-methylbenzenesulfonamide], the IC50 is 115 nM.
Turning to `CNS(=O)(=O)c1cccc(OC[C@@H](O)CN[C@H]2COC3(CCN(S(=O)(=O)c4ccc5nccn5c4)CC3)C2)c1` [Compound 537, 3-((S)-2-hydroxy-3-((R)-8-(imidazo[1,2-a]pyridin-6-ylsulfonyl)-1-oxa-8-azaspiro[4.5]decan-3-ylamino)propoxy)-N-methylbenzenesulfonamide], the IC50 is 101 nM.
Turning to `CNS(=O)(=O)c1cccc(OC[C@@H](O)CN[C@H]2COC3(CCN(S(=O)(=O)c4cccc(-c5ccc(CNC(C)C)cc5)c4)CC3)C2)c1` [Compound 362, 3-((S)-2-hydroxy-3-((R)-8-(4′-((isopropylamino)methyl)biphenyl-3-ylsulfonyl)-1-oxa-8-azaspiro[4.5]decan-3-ylamino)propoxy)-N-methylbenzenesulfonamide], the IC50 amounted to 27.5 nM.
Consider `CNS(=O)(=O)c1cccc(OC[C@@H](O)CN[C@H]2COC3(CCN(S(=O)(=O)c4ccc(OC)c(C)c4)CC3)C2)c1` [Compound 267, 3-((S)-2-hydroxy-3-((R)-8-(4-methoxy-3-methylphenylsulfonyl)-1-oxa-8-azaspiro[4.5]decan-3-ylamino)propoxy)-N-methylbenzenesulfonamide], for which the IC50 was found to be 9.43 nM.
As to `CNS(=O)(=O)c1cccc(OC[C@@H](O)CNC2COC3(CCN(S(=O)(=O)c4ccc5c(c4)N(CC(C)C)CCO5)CC3)C2)c1` (stereo partly drawn) [Compound 349, 3-((2S)-2-hydroxy-3-(8-(4-isobutyl-3,4-dihydro-2H-benzo[b][1,4]oxazin-6-ylsulfonyl)-1-oxa-8-azaspiro[4.5]decan-3-ylamino)propoxy)-N-methylbenzenesulfonamide], the IC50 was found to be 67.9 nM.
As to `CNS(=O)(=O)c1cccc(OC[C@@H](O)CNC2COC3(CCN(S(=O)(=O)c4cc(C#N)ccc4C)CC3)C2)c1` (stereo partly drawn) [Compound 217, 3-((2S)-3-(8-(5-cyano-2-methylphenylsulfonyl)-1-oxa-8-azaspiro[4.5]decan-3-ylamino)-2-hydroxypropoxy)-N-methylbenzenesulfonamide], the IC50 turned out to be 35.1 nM.
`CNS(=O)(=O)c1cccc(OC[C@@H](O)CNC2COC3(CCN(S(=O)(=O)c4cc(C)ccc4OC)CC3)C2)c1` (stereo partly drawn) [Compound 176, 3-((2S)-2-hydroxy-3-(8-(2-methoxy-5-methylphenylsulfonyl)-1-oxa-8-azaspiro[4.5]decan-3-ylamino)propoxy)-N-methylbenzenesulfonamide]: the IC50 came to 23.3 nM.
In the case of `CCn1cc(S(=O)(=O)N2CCC3(CC2)C[C@@H](NC[C@H](O)COc2cccc(S(=O)(=O)NC)c2)CO3)c(=O)c2cccc(F)c21` [Compound 525, 3-((S)-3-((R)-8-(1-ethyl-8-fluoro-4-oxo-1,4-dihydroquinolin-3-ylsulfonyl)-1-oxa-8-azaspiro[4.5]decan-3-ylamino)-2-hydroxypropoxy)-N-methylbenzenesulfonamide] it was 21.6 nM; in that of `CNS(=O)(=O)c1cccc(OC[C@@H](O)CNC2COC3(CCN(S(=O)(=O)c4ccc(F)cc4)CC3)C2)c1` (stereo partly drawn) [Compound 26, 3-((2S)-3-(8-(4-fluorophenylsulfonyl)-1-oxa-8-azaspiro[4.5]decan-3-ylamino)-2-hydroxypropoxy)-N-methylbenzenesulfonamide], 34.1 nM.
`CNS(=O)(=O)c1cccc(OC[C@@H](O)CNC2COC3(CCN(S(=O)(=O)c4c(C)ccc5nonc45)CC3)C2)c1` (stereo partly drawn) [Compound 175, 3-((2S)-2-hydroxy-3-(8-(5-methylbenzo[c][1,2,5]oxadiazol-4-ylsulfonyl)-1-oxa-8-azaspiro[4.5]decan-3-ylamino)propoxy)-N-methylbenzenesulfonamide]: the concentration for half-maximal inhibition (IC50) is 23.8 nM.
Take `CNS(=O)(=O)c1cccc(OC[C@@H](O)CN[C@H]2COC3(CCN(S(=O)(=O)c4cnc5c(c4)CCCO5)CC3)C2)c1` [Compound 483, 3-((S)-3-((R)-8-(3,4-dihydro-2H-pyrano[2,3-b]pyridin-6-ylsulfonyl)-1-oxa-8-azaspiro[4.5]decan-3-ylamino)-2-hydroxypropoxy)-N-methylbenzenesulfonamide]: the concentration for half-maximal inhibition (IC50) came out at 41.8 nM.
Consider `CNS(=O)(=O)c1cccc(OC[C@@H](O)CNC2COC3(CCN(S(=O)(=O)c4cccc(-c5ccc(N)nc5)c4)CC3)C2)c1` (stereo partly drawn) [Compound 103, 3-((2S)-3-(8-(3-(6-aminopyridin-3-yl)phenylsulfonyl)-1-oxa-8-azaspiro[4.5]decan-3-ylamino)-2-hydroxypropoxy)-N-methylbenzenesulfonamide], for which the IC50 was 10.5 nM.
Turning to `CNS(=O)(=O)c1cccc(OC[C@@H](O)CN[C@H]2COC3(CCN(S(=O)(=O)c4cnc5[nH]ccc5c4)CC3)C2)c1` [Compound 506, 3-((S)-3-((R)-8-(1H-pyrrolo[2,3-b]pyridin-5-ylsulfonyl)-1-oxa-8-azaspiro[4.5]decan-3-ylamino)-2-hydroxypropoxy)-N-methylbenzenesulfonamide], the IC50 is 11.9 nM.
On to `CNS(=O)(=O)c1cccc(OC[C@@H](O)CNC2COC3(CCN(S(=O)(=O)c4cccc(C#N)c4)CC3)C2)c1` (stereo partly drawn) [Compound 32, 3-((2S)-3-(8-(3-cyanophenylsulfonyl)-1-oxa-8-azaspiro[4.5]decan-3-ylamino)-2-hydroxypropoxy)-N-methylbenzenesulfonamide], for which the IC50 amounted to 16.6 nM.
`CNS(=O)(=O)c1cccc(OC[C@@H](O)CNC2COC3(CCN(S(=O)(=O)c4cc(Cl)ccc4OC)CC3)C2)c1` (stereo partly drawn) [Compound 148, 3-((2S)-3-(8-(5-chloro-2-methoxyphenylsulfonyl)-1-oxa-8-azaspiro[4.5]decan-3-ylamino)-2-hydroxypropoxy)-N-methylbenzenesulfonamide]: the concentration for half-maximal inhibition (IC50) turned out to be 11 nM.
In the case of `CNS(=O)(=O)c1cccc(OC[C@@H](O)CN[C@H]2COC3(CCN(S(=O)(=O)c4cc(-c5ccc(CN)cc5)ccc4OC)CC3)C2)c1` [Compound 385, 3-((S)-3-((R)-8-(4′-(aminomethyl)-4-methoxybiphenyl-3-ylsulfonyl)-1-oxa-8-azaspiro[4.5]decan-3-ylamino)-2-hydroxypropoxy)-N-methylbenzenesulfonamide], the IC50 was 11 nM.
As for `C[C@H](CO)NS(=O)(=O)c1cccc(OC[C@@H](O)CN[C@H]2COC3(CCN(S(=O)(=O)c4cnc5c(c4)N(C)CCO5)CC3)C2)c1` [Compound 418, 3-((S)-2-hydroxy-3-((R)-8-(1-methyl-2,3-dihydro-1H-pyrido[2,3-b][1,4]oxazin-7-ylsulfonyl)-1-oxa-8-azaspiro[4.5]decan-3-ylamino)propoxy)-N—((R)-1-hydroxypropan-2-yl)benzenesulfonamide], the half-inhibitory concentration (IC50) turned out to be 172 nM.
On to `CNS(=O)(=O)c1cccc(OC[C@@H](O)CNC2COC3(CCN(S(=O)(=O)c4cccc(-c5cccc(S(=O)(=O)N(C)C)c5)c4)CC3)C2)c1` (stereo partly drawn) [Compound 115, 3′-(3-((S)-2-hydroxy-3-(3-(N-methylsulfamoyl)phenoxy)propylamino)-1-oxa-8-azaspiro[4.5]decan-8-ylsulfonyl)-N,N-dimethylbiphenyl-3-sulfonamide], for which the IC50 is 33.5 nM.
As to `CNS(=O)(=O)c1cccc(OC[C@@H](O)CNC2COC3(CCN(S(=O)(=O)c4ccc5cc(OC)ccc5c4)CC3)C2)c1` (stereo partly drawn) [Compound 169, 3-((2S)-2-hydroxy-3-(8-(6-methoxynaphthalen-2-ylsulfonyl)-1-oxa-8-azaspiro[4.5]decan-3-ylamino)propoxy)-N-methylbenzenesulfonamide], the IC50 is 11.6 nM.
As to `O=S(=O)(NC1CC(F)(F)C1)c1cccc(OC[C@@H](O)CNC2COC3(CCN(S(=O)(=O)c4ccc5ccccc5c4)CC3)C2)c1` (stereo partly drawn) [Compound 89, N-(3,3-difluorocyclobutyl)-3-((2S)-2-hydroxy-3-(8-(naphthalen-2-ylsulfonyl)-1-oxa-8-azaspiro[4.5]decan-3-ylamino)propoxy)benzenesulfonamide], the 50% inhibitory concentration (IC50) was found to be 429 nM.
Turning to `CNS(=O)(=O)c1cccc(OC[C@@H](O)CNC2COC3(CCN(S(=O)(=O)c4cccc(-c5ccc(C(=N)N)cc5)c4)CC3)C2)c1` (stereo partly drawn) [Compound 383, 3′-(3-((S)-2-hydroxy-3-(3-(N-methylsulfamoyl)phenoxy)propylamino)-1-oxa-8-azaspiro[4.5]decan-8-ylsulfonyl)biphenyl-4-carboximidamide], the IC50 came out at 21.8 nM.
In the case of `CNS(=O)(=O)c1cccc(OC[C@@H](O)CNC2COC3(CCN(S(=O)(=O)c4cccc(-c5cn[nH]c5)c4)CC3)C2)c1` (stereo partly drawn) [Compound 64, 3-((2S)-3-(8-(3-(1H-pyrazol-4-yl)phenylsulfonyl)-1-oxa-8-azaspiro[4.5]decan-3-ylamino)-2-hydroxypropoxy)-N-methylbenzenesulfonamide] it was 11.1 nM.
